According to US20080119548A1, “Control Of Feeding Behavior By Changing Neuronal Energy Balance” (priority 2004, published 2008):

Legend:
[1] = system: NPY mRNA; assay: In situ hybridization of NPY in the arcuate nucleus; format: in vivo; conditions: C75-treated (24 hr) mice
Description: Anti-sense DIG-labeled NPY riboprobe was generated from a plasmid containing the NPY gene (XM004941). […] For double fluorescent in situ hybridization, DIG-labeled riboprobe was generated from plasmid containing AMPKα2 gene (pEBGα2, a gift from L. A. Witters) for AMPKα2 (FITC) and biotin-labeled riboprobe was used for NPY (Texas Red). Sheep FITC-conjugated anti-DIG antibody (1:50, Roche) was incubated in TNB buffer (100 mM Tris-HCl pH 7.5, 150 mM NaCl, and 0.5% blocking reagent) for FITC detection. Streptavidin-Texas Red (1:50, Amersham Pharmacia), rabbit anti-Texas Red antibody (1:50, Molecular Probes), goat biotin-conjugated anti-rabbit IgG antibody (1:50, Santa Cruz Biotechnology) and streptavidin-Texas Red (1:30) were incubated serially in TNB buffer for Texas Red detection.
Images of in situ hybridization and immunohistochemistry were visualized using an Axiocam HRc digital camera (Carl Zeiss) and images were acquired using Improvision Openlab software, and quantified by NIH Image program (Macro).

[2] = system: primary cortical neurons; assay: ATP, AMP/ATP ratio and AMPK activity in primary cortical neurons; format: cell-based, Sprague-Dawley rats; conditions: C75 treatment
Description: Cortices were removed from E17 Sprague-Dawley rats (Harlan, Indianapolis, Ind.), and were dissociated by mild trypsinization and trituration as described by Dawson, et al. J Neurosci 13, 2651-2661 (1993). Cells were plated on poly-D-lysine coated plastic Nunclon culture dishes at a density of 5×10^5 cells/cm^2 in Minimum Essential Media (MEM) supplemented with horse serum, fetal bovine serum, glutamine, and the antibiotics gentamycin and kanamycin. […]
Neurons were lysed on ice using TE buffer (100 mM Tris and 4 mM EDTA) and removed from the plate. ATP levels were then measured in the linear range using the ATP Bioluminescence Kit CLS II (Roche, Indianapolis, Ind.) by following the manufacturer's protocol, and results were read by a Perkin-Elmer Victor^2 1420.
Adenine nucleotide levels in primary cortical neuron lysates were determined by HPLC analysis as described by Stocchi, et al. Anal Biochem 167, 181-190 (1987). […]
AMPK activity was determined by performing SAMS peptide assays as described by Witters, et al., J Biol Chem 267, 2864-2867 (1992). […] Immunoprecipitates were then washed and resuspended in 4× assay buffer and kinase activity was assessed by measurement (for 20 min at 30° C.) of the incorporation of ^32P into the synthetic SAMS peptide substrate, HMRSAMSGLHLVKRR, (Princeton Biomolecules). […]

[3] = system: hypothalamic AMPKα (α1 and α2); assay: Western blot of phosphorylated AMPKα in hypothalamus; format: in vivo, mice; conditions: for reduction of levels of pAMPKα (α1 and α2) in the hypothalamus vs vehicle: C75 i.c.v. (5 μg or 10 mg)
Description: Hypothalami were dissected using as landmarks the optic chiasm rostrally, and the mammillary bodies caudally to a depth of 2 mm. Dissected hypothalamic and liver tissue were immediately frozen in liquid nitrogen. Tissues were homogenized in 200 μl of lysis buffer (50 mM Tris-HCl, pH 7.5, 250 mM sucrose, 5 mM sodium pyrophosphate, 50 mM NaF, 1 mM EDTA, 1 mM EGTA, 1 mM DTT, 0.5 mM PMSF, 0.1 mM benzamidine, 50 μg/ml leupeptin, 50 μg/ml soybean trypsin inhibitor). SDS detergent was added to a final 0.2%, and lysates were boiled for 5 min. After the supernatant was harvested, protein concentration was determined by BCA kit (Bio Rad). Phosphorylation of AMPKα was determined on a 4-15% gradient SDS-polyacrylamide gel using anti-phospho-AMPKα (α1 and α2, Thr172) antibody (1:1000, Cell Signaling). Anti-AMPKαt antibody (α1 and α2, 1:1000, Cell Signaling) was used as a loading control.

SMILES: C=C1C(=O)OC(CCCCCCCC)C1C(=O)O (centres unmarked) [C75]
- NPY mRNA expression in the arcuate nucleus, % of control [1]: 66 % of control
- AMPK activity in primary cortical neurons [2]: inactivation of AMPK
- ratio of AMP/ATP in primary cortical neurons [2]: decrease in the ratio of AMP/ATP
- level of hypothalamic pAMPKα in fasted mice ([3]; 24 hr fasting, then C75 i.p. (10 mg/kg bodyweight), vs RPMI control): profoundly reduced
- levels of pAMPKα in the hypothalamus ([3]; C75 10 mg/kg body weight i.p., 30 min and 3 hr): significantly reduced
- reduction of levels of pAMPKα (α1 and α2) in the hypothalamus vs vehicle ([3]; 30 min): three
- reduction of levels of pAMPKα (α1 and α2) in the hypothalamus vs vehicle ([3]; 3 hr): six-fold
- hypothalamic pAMPKα level ([3]; i.p. C75 and i.c.v. saline, 30 min after i.c.v. injection): profound decrease
